Source: US20050228041A1, “Protective and therapeutic uses for tocotrienols” (priority 2003, published 2005)

What was measured:
[1] = test system: 12-lipoxygenase activity in HT4 neurons; experiment: 12(S)-HETE, product of 12-lipoxygenase activity, in glutamate-treated HT4 neurons (HPLC); assay type: cell-based, mouse; settings: HT4, glutamate 12 h
Experimental: Neurons isolated from 12-LOX deficient mice are resistant to glutamate-induced death (FIG. 4). This striking finding reinforced our interest to test α-tocotrienol as an inhibitor of glutamate-inducible 12-LOX activity in neuronal cells. Referring to FIG. 5, Products of 12-lipoxygenase activity in glutamate-treated neurons were evaluated using a HPLC-based analytical approach. […] ND, not detectable. It was observed that the by-product of 12-LOX activity, 12(S)-HETE, was not detected in HT4 cells under basal culture conditions (FIG. 5). […] However, such increase was prevented in α-tocotrienol treated cells (FIG. 5). This line of observation led to the question whether over-expression of 12-LOX in HT4 cells would sensitize them to glutamate-induced cytotoxicity and whether α-tocotrienol could counter such toxicity.
12-HETE detection. 12-Hydroxy-eicosatetraenoic acid (HETE) from HT4 cells was detected using a HPLC-UV based method (Eberhard et al., 2000). Immunofluorescence microscopy. For immunofluorescence microscopy, primary cultures of rat cortical neurons were plated on 35 mm plates pre-coated with poly-L-lysine. After 24 h, cell were treated with α-tocotrienol or BL15 for 5 minutes and then challenged with glutamate or exposed to glutamate. […]

[2] = test system: HT4 neurons; experiment: Glutamate-induced death of HT4 neurons (propidium iodide exclusion flow cytometry, cell counts); assay type: cell-based, mouse
Experimental: Referring to FIG. 1, primary rat immature cortical neurons (A-C) or HT4 (D) were either treated or not with α-tocotrienol (as indicated) for 5 min and challenged with either glutamate (10 mM; A); L-homocysteic acid (1 mM; B); or buthionine sulfoximine (0.15 mM; BSO) for 24 h. […] Cells were counted at 12, 24 and 36 h after glutamate challenge.
First, we tested for the involvement of 12-LOX in the execution of glutamate-induced death in our model. We started by using the 12-LOX specific inhibitor baicalein or BL15. Referring to FIG. 3, HT4 neurons (A) were either treated or not with a-tocotrienol (250 nM) or […] (2.5 μM, 12-lipoxygenase inhibitor) for 5 min and then challenged with glutamate (10 mM). Cell viability was determined using propidium iodide (PI) exclusion flow cytometry assay. PI−=live; PI+=dead. Rat primary immature cortical neurons (B-D) were either treated or not with α-tocotrienol (100 nM) or BL15 (2.5 μM) for 5 min and challenged either with glutamate (10 mM; B); L-homocysteic acid (1 mM; C) or buthionine sulfoximine (0.15 mM; BSO; D) for 24 h. Arachidonic acid, 50 μM for 24h. BL15, Baicalein 5,6,7-trihydroxy-flavone.
Cell culture. Mouse hippocampal HT4 cells, were grown in Dulbecco's Modified Eagle Medium supplemented with 10% fetal calf serum, penicillin (100 U/ml) and streptomycin (100 μg/ml) at 37° C. in a humidified atmosphere containing 95% air and 5% CO2. HT4 cells were provided by Dr. D. E. Koshland Jr. (University of California at Berkeley) (Sen et al., 2000). Primary cortical neurons. Cells were isolated from the cerebral cortex of rat feti (Sprague Dawley; day 17 of gestation) or mouse feti (C57BL/6 mice, day 14 of gestation) as described (Murphy et al., 1990). For 12-LOX knockout studies, neurons were isolated from the feti of B6.129S2-Alox15^tm1Fun (Jackson Laboratory, […].). After isolation from the brain, cells were counted and seeded in culture plates at a density of 2-3×10^6 cells per 35 mm plate (Murphy et al., 1990). Cells were grown in Minimal Essential Medium (MEM) supplemented with 10% heat-inactivated fetal bovine serum, 40 μM cystine and antibiotics (100 μg/ml streptomycin, 100 units/ml penicillin, 0.25 μg/ml amphotericin). Cultures were maintained at 37° C. in 5% CO2 and 95% air in a humidified incubator. All experiments were carried out 24 h after plating.
Treatment with neurotoxic agents. Immediately before experiments, culture media was replaced with fresh medium supplemented with serum and antibiotics. Glutamate (10 mM) was added to the media as aqueous solution (Han et al., 1997a; Sen et al., 2000; Tirosh et al., 2000). […] Other agents used to induce death in neuronal cells have been described in the pertinent figure legends.
Vitamin E treatment. Stock solutions (10^3X of working concentration) of α-tocotrienol was prepared in ethanol. […]
Determination of cell viability. Viability of HT4 cells was determined using propidium iodide exclusion assay using the flow cytometer as described by us previously (Sen et al., 2000; Tirosh et al., 2000). Because primary neuronal cultures tend to aggregate during flow cytometry, the viability of these cells was assessed by measuring lactate dehydrogenase (LDH) leakage (Han et al., 1997a) from cells to media 24 h following glutamate treatment using in vitro toxicology assay kit from Sigma Chemical Co. (St. Louis, Mo., USA). […]

Question: What does the source list for `CC(C)=CCC/C(C)=C/CC/C(C)=C/CC[C@]1(C)CCc2c(C)c(O)c(C)c(C)c2O1` [α-tocotrienol]?
Answer: glutamate-induced increase of cellular 12(S)-HETE content [1]: prevented; protection against glutamate-induced toxicity / loss of cell viability of HT4 ([2]; glutamate 10 mM, tocotrienol 100 nM (nM levels) 5 min before): protect against loss of cell viability; proliferation / growth rate of glutamate-treated HT4 cells ([2]; tocotrienol 100 nM (nM levels), cells counted 12, 24 and 36 h after glutamate): preserve the normal growth rate
